Assay results taken from patent publication US8765820B2, “Tranylcypromine derivatives as inhibitors of histone demethylases LSD1 and/or LSD2” (Universita Degli Studi di Roma “La Sapienza”, priority 2010, dated 2014).
Counter-ions that a name gives are not always drawn. Like-named read-outs stand apart in the source and are kept apart here.

Columns and labels:
[1] = target: Mouse recombinant LSD2 (Mus musculus (Mouse), UniProt Q8CIG3); assay: LSD2 inhibition, peroxidase-coupled assay with histone H3 peptide di-methylated at Lys4; assay type: biochemical; conditions: for Ki: pH 8.0, steady-state competition experiments, errors within 30%
Sequence of Mouse recombinant LSD2 (Q8CIG3 whole entry): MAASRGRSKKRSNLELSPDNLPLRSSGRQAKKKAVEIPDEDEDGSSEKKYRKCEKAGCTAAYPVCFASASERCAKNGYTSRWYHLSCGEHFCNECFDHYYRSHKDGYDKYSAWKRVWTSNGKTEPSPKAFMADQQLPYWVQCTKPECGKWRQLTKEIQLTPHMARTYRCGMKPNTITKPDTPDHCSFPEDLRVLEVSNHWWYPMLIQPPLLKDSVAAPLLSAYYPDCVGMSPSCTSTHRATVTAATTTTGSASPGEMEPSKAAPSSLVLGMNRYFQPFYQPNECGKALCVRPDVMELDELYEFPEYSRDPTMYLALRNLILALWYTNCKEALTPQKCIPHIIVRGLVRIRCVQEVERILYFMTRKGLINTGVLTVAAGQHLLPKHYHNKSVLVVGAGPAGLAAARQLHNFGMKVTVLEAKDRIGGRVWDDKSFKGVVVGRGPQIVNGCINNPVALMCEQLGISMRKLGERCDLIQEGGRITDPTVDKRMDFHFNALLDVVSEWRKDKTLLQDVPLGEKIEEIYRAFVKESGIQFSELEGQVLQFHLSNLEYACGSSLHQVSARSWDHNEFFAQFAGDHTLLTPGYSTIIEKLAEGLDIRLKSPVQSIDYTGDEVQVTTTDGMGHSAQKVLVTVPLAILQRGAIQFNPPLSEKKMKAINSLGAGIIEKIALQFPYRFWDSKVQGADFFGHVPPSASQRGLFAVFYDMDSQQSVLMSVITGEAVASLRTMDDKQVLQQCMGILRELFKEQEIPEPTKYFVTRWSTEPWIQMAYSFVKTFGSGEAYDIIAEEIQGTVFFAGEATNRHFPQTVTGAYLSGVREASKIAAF

[2] = target: Human recombinant LSD1/CoREST (Homo sapiens (Human), UniProt O60341); assay: LSD1 inhibition, peroxidase-coupled assay with histone H3 peptide mono-methylated at Lys4; assay type: biochemical
[3] = target: Human recombinant MAO A (Homo sapiens (Human), UniProt P21397); assay: MAO A inhibition, peroxidase-coupled assay with kynuramine as substrate; assay type: biochemical
Sequence of Human recombinant MAO A (P21397 whole entry, looked up): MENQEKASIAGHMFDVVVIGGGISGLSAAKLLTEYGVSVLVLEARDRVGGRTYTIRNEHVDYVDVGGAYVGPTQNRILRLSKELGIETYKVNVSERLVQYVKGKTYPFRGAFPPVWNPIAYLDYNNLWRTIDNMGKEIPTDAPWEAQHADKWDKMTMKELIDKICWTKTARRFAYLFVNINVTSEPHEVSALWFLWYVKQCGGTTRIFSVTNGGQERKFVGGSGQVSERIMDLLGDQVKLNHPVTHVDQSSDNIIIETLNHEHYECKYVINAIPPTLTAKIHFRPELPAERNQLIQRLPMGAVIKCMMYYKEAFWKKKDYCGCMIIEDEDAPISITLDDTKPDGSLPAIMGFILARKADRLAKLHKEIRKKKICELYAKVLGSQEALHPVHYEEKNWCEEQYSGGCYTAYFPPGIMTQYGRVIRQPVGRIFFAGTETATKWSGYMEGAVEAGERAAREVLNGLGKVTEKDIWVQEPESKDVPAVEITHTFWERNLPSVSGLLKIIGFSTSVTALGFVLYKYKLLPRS

[4] = target: Human recombinant MAO B (Homo sapiens (Human), UniProt P27338); assay: MAO B inhibition, peroxidase-coupled assay with benzylamine as substrate; assay type: biochemical; conditions: for MAO B Ki: 25° C., pH 7.5, no inhibition = no detectable inhibition at inhibitor saturated solutions
Sequence of Human recombinant MAO B (P27338 whole entry): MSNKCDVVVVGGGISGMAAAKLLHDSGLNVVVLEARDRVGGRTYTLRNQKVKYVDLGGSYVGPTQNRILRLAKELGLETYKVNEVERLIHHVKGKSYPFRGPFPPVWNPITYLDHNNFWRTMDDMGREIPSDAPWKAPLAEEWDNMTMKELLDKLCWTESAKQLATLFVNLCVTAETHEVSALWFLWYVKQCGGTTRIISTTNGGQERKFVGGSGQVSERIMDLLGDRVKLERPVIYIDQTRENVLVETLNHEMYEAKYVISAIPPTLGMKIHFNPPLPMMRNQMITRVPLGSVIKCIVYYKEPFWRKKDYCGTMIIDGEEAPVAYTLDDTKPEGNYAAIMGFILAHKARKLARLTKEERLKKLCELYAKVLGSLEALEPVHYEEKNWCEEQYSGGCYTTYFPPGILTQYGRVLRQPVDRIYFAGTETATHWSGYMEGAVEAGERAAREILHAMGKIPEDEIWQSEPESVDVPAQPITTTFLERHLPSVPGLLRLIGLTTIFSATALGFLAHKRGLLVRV

[5] = tested on: NB4 cells; conditions: RA 10 nM in the absence of 6e

| Compound | LSD2 inhibition [1] | MAO A inhibition [3] | MAO B inhibition [4] | other results |
| --- | --- | --- | --- | --- |
| CC(C)C(NC(=O)OCc1ccccc1)C(=O)Nc1ccc([C@@H]2C[C@H]2N)cc1 (relative stereo) (as salt: hydrochloride) [Compound 6a, trans benzyl 1-(4-(2-aminocyclopropyl)phenylamino)-3-methyl-1-oxobutan-2-ylcarbamate] |  |  |  | melting point: 168 to 170 °C |
| CC(C)CC(NC(=O)OCc1ccccc1)C(=O)Nc1ccc([C@@H]2C[C@H]2N)cc1 (relative stereo) (as salt: hydrochloride) [Compound 6b, trans benzyl 1-(4-(2-aminocyclopropyl)phenylamino)-4-methyl-1-oxopentan-2-ylcarbamate] |  |  |  | melting point: 158 to 160 °C |
| N[C@@H]1C[C@H]1c1ccc(NC(=O)OCc2ccccc2)cc1 (relative stereo) [Compound 5a, trans benzyl 4-(2-aminocyclopropyl)phenylcarbamate] |  |  |  | Ki ([1]; 25° C.): 20 µM |
| N[C@@H]1C[C@H]1c1ccc(NC(=O)c2ccccc2)cc1 (relative stereo) [Compound 5b, trans N-(4-(2-aminocyclopropyl)phenyl)benzamide] |  |  |  | Ki ([1]; 25° C.): 61 µM |
| CC(C)C(NC(=O)OCc1ccccc1)C(=O)Nc1ccc([C@@H]2C[C@H]2N)cc1 (relative stereo) [Compound 6a, trans benzyl 1-(4-(2-aminocyclopropyl)phenylamino)-3-methyl-1-oxobutan-2-ylcarbamate] | + | + | − | LSD1 inhibition [2]: + |
| CC(C)CC(NC(=O)OCc1ccccc1)C(=O)Nc1ccc([C@@H]2C[C@H]2N)cc1 (relative stereo) [Compound 6b, trans benzyl 1-(4-(2-aminocyclopropyl)phenylamino)-4-methyl-1-oxopentan-2-ylcarbamate] | + | + | − | LSD1 inhibition [2]: + |
| N[C@@H]1C[C@H]1c1ccc(NC(=O)C(Cc2ccccc2)NC(=O)OCc2ccccc2)cc1 (relative stereo) [Compound 6e, trans benzyl 1-(4-(2-aminocyclopropyl)phenylamino)-1-oxo-3-phenylpropan-2-ylcarbamate] |  |  |  | MAO B Ki [4]: no inhibition^d |
| Cl.N[C@@H]1C[C@H]1c1ccc(NC(=O)CCCCCCC(=O)NO)cc1 (relative stereo) [Compound 9, trans N^1-(4-(2-aminocyclopropyl)phenyl)-N^8-hydroxyoctanediamide] |  |  |  | LSD1 inhibition ([2]; 25° C., 50 mM Hepes/NaOH pH 7.5, max inhibitor concentration 1 mM or saturated solution): +; LSD2 inhibition ([1]; 25° C., 50 mM Hepes/NaOH pH 8.0, max inhibitor concentration 1 mM or saturated solution): +; MAO B inhibition ([4]; 50 mM Hepes/NaOH pH 7.5, 0.5% reduced Triton X-100, max inhibitor concentration 1 mM or saturated solution): + |
| Cl.NC1CC1c1ccc(NC(=O)C(Cc2ccccc2)NC(=O)OCc2ccc(Br)cc2)cc1 (stereo not drawn) [Compound 7, trans 4-bromobenzyl 1-(4-(2-aminocyclopropyl)phenylamino)-1-oxo-3-phenylpropan-2-ylcarbamate] |  |  | − | MAO B Ki [4]: no inhibition^d; melting point: 220 to 222 °C |
| Cl.NC1CC1c1ccc(NC(=O)C(Cc2ccccc2)NC(=O)OCc2ccccc2)cc1 (stereo not drawn) [Compound 8, cis benzyl 1-(4-(2-aminocyclopropyl)phenylamino)-1-oxo-3-phenylpropan-2-ylcarbamate] |  |  | − | MAO B Ki [4]: no inhibition^d |
| CN(C(=O)C(Cc1ccccc1)NC(=O)OCc1ccccc1)c1ccc(C2CC2N)cc1.Cl (stereo not drawn) [Compound 12, trans benzyl 1-((4-(2-aminocyclopropyl)phenyl)(methyl)amino)-1-oxo-3-phenylpropan-2-ylcarbamate] | + | + | − | MAO B Ki [4]: no inhibition^d |
| Cl.NC1CC1c1ccc(NC(=O)C(Cc2ccccc2)NC(=O)NCc2ccccc2)cc1 (stereo not drawn) [Compound 16, trans N-(4-(2-aminocyclopropyl)phenyl)-2-(3-benzylureido)-3-phenylpropanamide] | + | + | + | melting point: 153 to 155 °C |
| CC1=C(/C=C/C(C)=C/C=C/C(C)=C/C(=O)O)C(C)(C)CCC1 [RA, retinoic acid] |  |  |  | differentiating effect of RA alone [5]: almost totally ineffective |
| trans benzyl 1-(4-(2- aminocycylpropyl)phenylamino)-3- (napththalen-1-yl)-1-oxopropan-2- ylcarbamate [Compound 6j] | + | + | − | LSD1 inhibition [2]: + |
